Measured values from US8852876B2, “Label free biosensors and cells” (Corning Incorporated, priority 2008, dated 2014).

Key:
EGFR = biological target: T1, EGFR (Homo sapiens, UniProt P00533); experiment: EGF-induced DMR response of A431 cells on RWG optical biosensor; assay type: cell-based; details: quiescent A431 cells
T1 construct: endogenously over-expressed EGFRs; endogenous in cells; host or cells: A431 (American Type Cell Culture)
Experimental: (§1) Both A431 and CHO-K1 cells were grown in Dulbecco's modified Eagle's medium (DMEM) supplemented with 10% fetal calf serum, 100 μg/ml penicillin, and 100 μg/ml streptomycin. For cell culture, certain numbers of cells (2×10^5 to 1×10^6), either A431 or CHO-K1, were suspended in […] medium were placed in each well of a 96 well Corning Epic Biosensor microplate, and were cultured at 37° C. in air/5% CO2 for certain time until the cell density reached ˜90% and above (unless specified). The resulted cells were termed as “profilerating” cells. The “quiescent” cells were obtained by culturing the profilerating cells of desired confluencies with a medium containing no or little (˜0.1% fetal bovine serum (FBS)) for at least 16 hours.
During the assays, the cells in 100 μl medium were subject to two 25 μl HBSS buffer containing 20 mM HEPES, pH 7.4, each separated by at least 15 minutes before 50 μl stimulus-containing solution was applied. […] For compound effect studies, a modified protocol was used which starts with 50 μl medium, and subject to sequential treatment: 25 μl HBSS buffer twice (each separated by at least 15 minutes), 50 μl compound solution and finally 50 μl stimulus-containing solution.

CHO cells = experiment: EGF stimulation of CHO cells on optical biosensor (DMR); assay type: cell-based, Chinese hamster; details: CHO cells incubated with EGF
Experimental: as §1
The cells, either proliferating or quiescent cells, were either directly used for assays or washed once with the corresponding medium (both result in no obvious difference in cell responses). During the assays, the cells in 100 μl medium were subject to two 25 μl HBSS buffer containing 20 mM HEPES, pH 7.4, each separated by at least 15 minutes before 50 μl stimulus-containing solution was applied. During all these steps, a parallel angular interrogation system was used to monitor the real time kinetics of cellular responses. […]

[1] = system: protease activated receptors PAR1 and PAR2; assay type: cell-based, human
Procedure, shortened: (§2)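 A431 cells at passage 3-5 grown in DMEM/10% FBS at 37° C, 5% CO2 to ~95% confluency (~2-4 days). Compounds and PAR agonists prepared in 1×HBSS to match the refractive index of the cell medium for dynamic mass redistribution (DMR) read-out.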

[2] = system: protease activated receptors PAR1 and PAR2; experiment: Fluo-3 Ca2+ mobilization assay with PAR agonists; assay type: cell-based, human; details: EGF 100 nM; trypsin 100 nM
Procedure, shortened: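 A431 cells (passage 3–5), serum-starved overnight, loaded with 4 μM Fluo-3 for 1 h in HBSS/20 mM HEPES pH 7.0 with 2.5 mM probenecid. PAR agonist added and calcium fluorescence recorded over 6 min at 6 s intervals, room temperature.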

quiescent A431 cells = experiment: mβCD-induced response (cholesterol effluxing) on LID sensor; assay type: cell-based, human; details: 20 nM EGF or 1000 nM H7; pretreated at least 40 minutes
From the text: The disclosed methods can be used to assay cholesterol transport and to, for example, screen for molecules that effect cholesterol transport, such as effluxing and uptake. […] This method is based on the measurement in real time of the effect of compounds on cholesterol effluxing. Depletion of cholesterol content on cell surface or intracellular pool results in the disappearance of microvilli located in the cell surface, resulting in the flatness of cells adherent on a surface. The flatness of cells leads to a positive DMR phase with increased signal. Based on this biological effect, we use reagents, as markers, that can either extract cholesterol from the cell surface (e.g., methyl-beta-cyclodextrin (mβCD), or high density lipoproteins (HDLs)), or bind or sequester cholesterol on the cell surface (e.g., saponin at relatively low concentrations). The changes obtained using optical biosensors can be used as an indicator of modulators that interfere with the cholesterol effuxing. FIG. 27 provides a schematic of a cholesterol pathway.

[3] = system: endogenous GPCRs in A431 cells; experiment: DMR optical biosensor profiling of GPCR agonists; assay type: cell-based, human; details: quiescent A431; first class = Gq-type, second = Gs-type, third = Gi-type, fourth = no significant DMR
β2 adrenergic receptor = biological target: T2, β2 adrenergic receptor (Homo sapiens, UniProt P07550); experiment: DMR optical biosensor assay, agonist efficacy; assay type: cell-based; details: 10 μM pretreatment; 25 nM epinephrine
T2 construct: A431 endogenously expresses high numbers of β2 receptor; endogenous in cells; host or cells: A431

adenosine receptors = details: read-out: Apparent EC50 (slowly increased P-DMR, Gs-type)
A2A receptor = details: read-out: Affinity; cited from earlier work
A3 receptor = biological target: T3, A3 receptor (Rattus norvegicus, UniProt P28647); details: read-out: Affinity; cited from earlier work
T3 sequence (P28647 1-320): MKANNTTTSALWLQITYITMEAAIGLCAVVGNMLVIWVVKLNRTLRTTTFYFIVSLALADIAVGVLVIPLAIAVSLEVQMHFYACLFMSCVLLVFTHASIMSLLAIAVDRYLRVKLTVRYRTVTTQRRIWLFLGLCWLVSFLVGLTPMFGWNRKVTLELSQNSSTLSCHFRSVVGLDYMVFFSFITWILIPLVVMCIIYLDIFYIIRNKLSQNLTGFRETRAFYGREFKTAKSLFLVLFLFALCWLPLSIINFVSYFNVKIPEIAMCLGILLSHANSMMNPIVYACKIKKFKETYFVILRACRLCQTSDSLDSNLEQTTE

[4] = system: EGF-induced response of quiescent A431 cells; experiment: Effect of compound pretreatment on EGF-induced DMR response; assay type: cell-based, human; details: quiescent A431 cells; 32 nM EGF
Procedure, shortened: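 A431 cells were made quiescent by ≥16 h culture in no or ~0.1% FBS medium. After two HBSS/20 mM HEPES pH 7.4 buffer additions ≥15 min apart, compound was added and then stimulus. Real-time dynamic mass redistribution was tracked by resonant waveguide biosensor with angular interrogation.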

[5] = biological target: T4, protease activated receptors PAR1 and PAR2 (Homo sapiens, UniProt P25116); assay type: cell-based; details: 40 unit/ml thrombin; modulators 10 μM
T4 construct: A431 cells which endogenously express PAR1 and PAR2; endogenous in cells; host or cells: A431
T4 sequence (P25116 22-425): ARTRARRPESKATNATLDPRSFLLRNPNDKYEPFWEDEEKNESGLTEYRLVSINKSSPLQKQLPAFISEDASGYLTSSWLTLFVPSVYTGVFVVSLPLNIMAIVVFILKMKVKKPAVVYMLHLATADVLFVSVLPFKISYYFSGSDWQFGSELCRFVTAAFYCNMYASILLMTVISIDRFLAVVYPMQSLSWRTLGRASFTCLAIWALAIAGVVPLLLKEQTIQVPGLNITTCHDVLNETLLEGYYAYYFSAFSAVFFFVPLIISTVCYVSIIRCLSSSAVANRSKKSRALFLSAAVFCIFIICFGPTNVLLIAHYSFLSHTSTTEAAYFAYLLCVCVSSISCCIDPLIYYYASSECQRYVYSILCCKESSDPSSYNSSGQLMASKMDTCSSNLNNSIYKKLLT
Procedure, shortened: as §2

trypsin = experiment: BAEE hydrolysis assay; assay type: biochemical
MC receptors = experiment: DMR optical biosensor assay, agonist efficacy; assay type: cell-based, human; details: quiescent A431; n=3; read-out: Apparent EC50 (total responses of two P-DMR events)
P2Y receptors = experiment: DMR optical biosensor assay, agonist efficacy; assay type: cell-based, human; details: quiescent A431; n=3; read-out: Apparent EC50 (P-DMR amplitude, Gq-type)
[6] = biological target: T5, Bombesin receptor subtype 1 (BRS1) (Homo sapiens, UniProt P28336); experiment: Fluo-3 Ca2+ mobilization assay; assay type: cell-based; details: n=5
T5 construct: previously reported to endogenously express in A431 cells; endogenous in cells; host or cells: A431
T5 sequence (P28336 whole entry): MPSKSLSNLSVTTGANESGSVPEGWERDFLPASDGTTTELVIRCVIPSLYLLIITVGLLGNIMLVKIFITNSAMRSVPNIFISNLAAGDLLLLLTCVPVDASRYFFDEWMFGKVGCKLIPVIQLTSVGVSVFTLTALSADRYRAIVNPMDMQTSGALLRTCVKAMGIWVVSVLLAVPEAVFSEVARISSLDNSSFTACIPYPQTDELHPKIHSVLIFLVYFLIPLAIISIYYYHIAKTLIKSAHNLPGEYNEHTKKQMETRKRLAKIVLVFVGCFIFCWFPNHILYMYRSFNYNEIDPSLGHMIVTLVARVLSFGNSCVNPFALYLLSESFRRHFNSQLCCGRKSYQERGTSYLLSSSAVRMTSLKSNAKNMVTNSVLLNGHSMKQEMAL

## epidermal growth factor [EGF]
EGFR; non-linear regression, read-out: Kd from one-phase decay constant K of the N-DMR signal
  Kd: 5.76 nM
EGFR; read-out: EC50 from amplitudes of the N-DMR signals vs EGF concentration
  EC50: ~1.45 nM
CHO cells
  DMR signals induced by EGF: no clear P-DMR nor B-DMR signal
[1]; EGF 100 nM, 100 nM trypsin, 40 unit/ml thrombin
  Effect of preceding stimulation on DMR responses mediated by trypsin or thrombin: totally blocked the N-DMR event, but only attenuated the P-DMR event
[2]
  Effect of preceding stimulation on trypsin-mediated [Ca2+]i elevation: little effect on the [Ca^2+]i elevation mediated by trypsin
Quiescent A431 cells
  Effect of pretreatment on mβCD-induced response: significantly suppressed the mβCD-induced response

## NKH447
[3]
  Class of optical signature (DMR) induced by agonist: an optical signature that is similar to those induced by either β2 or A2 agonists
β2 adrenergic receptor
  Effect of pretreatment on epinephrine-mediated DMR response: completely abolished the DMR responses mediated by epinephrine

## CCNC(=O)[C@H]1O[C@@H](n2cnc3c(N)ncnc32)[C@H](O)[C@@H]1O [NECA]
[3]
  Class of optical signature (DMR) induced by agonist: second class of optical signatures
Adenosine receptors
  EC50: 21.5 ± 1.2 nM
A2A receptor
  Ki: […]

## NCCNC(=O)Cc1ccc(NC(=O)Cc2ccc(Nc3ncnc4c3ncn4[C@@H]3O[C@H](CO)[C@@H](O)[C@H]3O)cc2)cc1 [ADAC, adenosine amine cogener]
A3 receptor
  Ki: 285 nM

## CN([C@@H](Cc1ccc(OS(=O)(=O)c2cccc3cnccc23)cc1)C(=O)N1CCN(c2ccccc2)CC1)S(=O)(=O)c1cccc2cnccc12 [KN 62]
[4]
  Effect of pretreatment on 32 nM EGF-induced response: little effect on the response
[5]
  Effect of pretreatment on thrombin-mediated DMR signal: slightly suppressed the thrombin-mediated DMR signal
[1]; 100 or 200 nM trypsin, modulators 10 μM
  Effect of pretreatment on trypsin-mediated DMR signal: almost completely abolished the trypsin-mediated DMR signal
trypsin
  Effect on trypsin activity: no any obvious effect on the trypsin activity

## α-melanocyte stimulating hormone [α-MSH]
[3]
  Class of optical signature (DMR) induced by agonist: third class of optical signatures
MC receptors
  EC50: 9 ± 1.6 nM

## Nc1ncnc2c1ncn2[C@@H]1O[C@H](COP(=O)(O)OP(=O)(O)OP(=O)(O)O)[C@@H](O)[C@H]1O [ATP]
[3]
  Class of optical signature (DMR) induced by agonist: first class of optical signatures
P2Y receptors
  EC50: 2200 ± 600 nM

## CSCC[C@H](NC(=O)[C@H](CC(C)C)NC(=O)[C@H](Cc1cnc[nH]1)NC(=O)CNC(=O)[C@@H](NC(=O)[C@H](C)NC(=O)[C@H](Cc1c[nH]c2ccccc12)NC(=O)[C@H](CCC(N)=O)NC(=O)[C@H](CC(N)=O)NC(=O)CNC(=O)[C@H](CC(C)C)NC(=O)[C@H](CCCN=C(N)N)NC(=O)[C@H](CCC(N)=O)NC(=O)[C@@H]1CCC(=O)N1)C(C)C)C(N)=O [bombesin]
[6]
  Maximum increase in intracellular Ca2+ level: 20±5%
